Measured values reported in US11254686B1 (Corvus Pharmaceuticals, Inc., priority 2017, dated 2022).

Columns and labels:
Format in all cases: biochemical
adenosine A2A receptor = adenosine A2A receptor (Homo sapiens (Human), UniProt P29274); assay: Adenosine receptor activity assay (Table 1), A2A activity; conditions: cAMP; read-out: Ave A2A cAMP IC50
adenosine A1 receptor = adenosine A1 receptor (Homo sapiens (Human), UniProt P30542); assay: Adenosine receptor activity assay (Table 1), A1 cAMP
adenosine A2B receptor = adenosine A2B receptor (Homo sapiens (Human), UniProt P29275); assay: Adenosine receptor activity assay (Table 1), A2B activity; conditions: for Ratio: A2A activity to the A2B activity, A2A/A2B; for IC50: cAMP, read-out: Ave A2B cAMP IC50
adenosine A3 receptor = adenosine A3 receptor (Homo sapiens (Human), UniProt P0DMS8); assay: Adenosine receptor activity assay (Table 1), A3 cAMP
Sequence of adenosine A3 receptor (P0DMS8 whole entry): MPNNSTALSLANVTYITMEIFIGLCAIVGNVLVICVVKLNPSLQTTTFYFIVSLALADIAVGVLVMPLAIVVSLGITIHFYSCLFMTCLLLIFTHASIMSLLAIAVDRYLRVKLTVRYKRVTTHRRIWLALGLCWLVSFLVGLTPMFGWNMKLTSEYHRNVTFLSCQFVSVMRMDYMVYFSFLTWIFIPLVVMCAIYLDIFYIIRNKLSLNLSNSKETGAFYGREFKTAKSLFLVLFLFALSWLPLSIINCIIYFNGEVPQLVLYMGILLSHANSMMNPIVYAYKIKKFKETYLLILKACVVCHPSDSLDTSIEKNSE

Sequence of adenosine A2B receptor (P29275 whole entry): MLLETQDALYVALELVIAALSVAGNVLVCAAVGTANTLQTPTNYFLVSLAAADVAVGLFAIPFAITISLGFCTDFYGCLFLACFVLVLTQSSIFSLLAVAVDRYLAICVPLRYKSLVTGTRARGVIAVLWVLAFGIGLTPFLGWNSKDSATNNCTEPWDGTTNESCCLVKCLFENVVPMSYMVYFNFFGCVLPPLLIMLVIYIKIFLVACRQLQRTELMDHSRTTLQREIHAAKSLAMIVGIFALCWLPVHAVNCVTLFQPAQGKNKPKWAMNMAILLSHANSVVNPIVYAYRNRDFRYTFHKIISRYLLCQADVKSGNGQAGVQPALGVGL
Sequence of adenosine A2A receptor (P29274 whole entry): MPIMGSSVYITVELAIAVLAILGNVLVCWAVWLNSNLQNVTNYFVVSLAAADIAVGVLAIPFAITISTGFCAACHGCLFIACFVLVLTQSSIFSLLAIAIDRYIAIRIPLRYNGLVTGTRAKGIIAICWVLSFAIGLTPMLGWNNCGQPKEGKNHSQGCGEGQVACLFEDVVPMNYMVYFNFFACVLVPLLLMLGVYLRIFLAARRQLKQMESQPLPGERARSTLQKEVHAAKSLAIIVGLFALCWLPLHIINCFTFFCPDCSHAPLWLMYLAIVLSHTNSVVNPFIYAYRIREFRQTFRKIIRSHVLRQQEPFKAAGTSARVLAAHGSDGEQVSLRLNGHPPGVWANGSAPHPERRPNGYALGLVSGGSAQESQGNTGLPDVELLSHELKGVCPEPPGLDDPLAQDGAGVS
Sequence of adenosine A1 receptor (P30542 whole entry): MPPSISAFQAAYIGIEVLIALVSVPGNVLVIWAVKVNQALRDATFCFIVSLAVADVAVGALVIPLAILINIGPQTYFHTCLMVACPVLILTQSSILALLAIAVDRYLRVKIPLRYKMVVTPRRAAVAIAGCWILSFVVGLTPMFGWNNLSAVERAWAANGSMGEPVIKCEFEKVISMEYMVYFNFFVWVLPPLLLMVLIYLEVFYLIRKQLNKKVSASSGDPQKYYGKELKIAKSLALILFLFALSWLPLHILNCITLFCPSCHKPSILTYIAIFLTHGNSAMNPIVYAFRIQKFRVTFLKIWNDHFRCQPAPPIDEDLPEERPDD

Molecule | IC50 (adenosine A2A receptor) | IC50 (adenosine A1 receptor) | Ratio (adenosine A2B receptor) | IC50 (adenosine A2B receptor) | IC50 (adenosine A3 receptor)
C[C@H](Nc1nc(C(=O)N2CC(NC(=O)C3(C#N)CC3)C2)c2sccc2n1)c1cncc(F)c1 [Example Z636, (S)-1-Cyano-N-(1-(2-((1-(5-fluoropyridin-3-yl)ethyl)amino)thieno[3,2-d]pyrimidine-4-carbonyl)azetidin-3-yl)cyclopropane-1-carboxamide] | 50 to 100 nM | > 500 nM | 3.72 | 10 to 50 nM | > 500 nM
C[C@H](Nc1nc(C(=O)N2CC(NC(=O)C3COC3)C2)c2sccc2n1)c1cncc(F)c1 [Example Z607, (S)—N-(1-(2-((1-(5-Fluoropyridin-3-yl)ethyl)amino)thieno[3,2-d]pyrimidine-4-carbonyl)azetidin-3-yl)oxetane-3-carboxamide] | 50 to 100 nM | > 500 nM | 4.49 | 10 to 50 nM | > 500 nM
C[C@H](Nc1nc(C(=O)N2CC(NC(=O)Nc3ccccc3)C2)c2sccc2n1)c1cncc(F)c1 [Example Z634, (S)-1-(1-(2-((1-(5-Fluoropyridin-3-yl)ethyl)amino)thieno[3,2-d]pyrimidine-4-carbonyl)azetidin-3-yl)-3-phenylurea] | 10 to 50 nM | > 500 nM | 2.22 | < 10 nM | 100 to 500 nM
C[C@H](Nc1nc(C(=O)N2CC(NC(=O)OC3CCCC3)C2)c2sccc2n1)c1cncc(F)c1 [Example Z618, Cyclopentyl (S)-(1-(2-((1-(5-fluoropyridin-3-yl)ethyl)amino)thieno[3,2-d]pyrimidine-4-carbonyl)azetidin-3-yl)carbamate] | 10 to 50 nM | > 500 nM | 1.31 | 10 to 50 nM | 100 to 500 nM
C[C@H](Nc1nc(C(=O)N2CC(NC(=O)c3ccccc3)C2)c2sccc2n1)c1cncc(F)c1 [Example Z601, (S)—N-(1-(2-((1-(5-Fluoropyridin-3-yl)ethyl)amino)thieno[3,2-d]pyrimidine-4-carbonyl)azetidin-3-yl)benzamide] | 10 to 50 nM | > 500 nM | 0.90 | 10 to 50 nM | 100 to 500 nM
C[C@H](Nc1nc(C(=O)N2CC(NC(=O)c3ccoc3)C2)c2sccc2n1)c1cncc(F)c1 [Example Z600, (S)—N-(1-(2-((1-(5-Fluoropyridin-3-yl)ethyl)amino)thieno[3,2-d]pyrimidine-4-carbonyl)azetidin-3-yl)furan-3-carboxamide] | 10 to 50 nM | > 500 nM | 1.90 | < 10 nM | 100 to 500 nM
COc1cccc(C(=O)NC2CN(C(=O)c3nc(N[C@@H](C)c4cncc(F)c4)nc4ccsc34)C2)c1 [Example Z635, (S)—N-(1-(2-((1-(5-Fluoropyridin-3-yl)ethyl)amino)thieno[3,2-d]pyrimidine-4-carbonyl)azetidin-3-yl)-3-methoxybenzamide] | 10 to 50 nM | > 500 nM | 2.06 | 10 to 50 nM | 100 to 500 nM
C[C@H](Nc1nc(C(=O)N2CC(NC(=O)C3(C)CC3)C2)c2sccc2n1)c1cncc(Cl)c1 [Example Z641, (S)—N-(1-(2-((1-(5-Chloropyridin-3-yl)ethyl)amino)thieno[3,2-d]pyrimidine-4-carbonyl)azetidin-3-yl)-1-methylcyclopropane-1-carboxamide] | 10 to 50 nM | > 500 nM | 1.81 | < 10 nM | 100 to 500 nM
C[C@H](Nc1nc(C(=O)N2CC(NC(=O)c3cccnc3)C2)c2sccc2n1)c1cncc(F)c1 [Example Z620, (S)—N-(1-(2-((1-(5-Fluoropyridin-3-yl)ethyl)amino)thieno[3,2d]pyrimidine-4-carbonyl)azetidin-3-yl)nicotinamide] | 50 to 100 nM | > 500 nM | 3.94 | 10 to 50 nM | > 500 nM

The remaining lines, values ahead:

IC50 (adenosine A2A receptor) | IC50 (adenosine A1 receptor) | Ratio (adenosine A2B receptor) | IC50 (adenosine A2B receptor) | IC50 (adenosine A3 receptor) | Molecule
< 10 nM | > 500 nM | 1.12 | < 10 nM | 100 to 500 nM | Cc1cc2nc(N[C@@H](C)c3cncc(F)c3)nc(C(=O)N3CC(NC(=O)c4ccc(C(F)(F)F)o4)C3)c2s1 [Example Z632, (S)—N-(1-(2-((1-(5-Fluoropyridin-3-yl)ethyl)amino)-6-methylthieno[3,2-d]pyrimidine-4-carbonyl)azetidin-3-yl)-5-(trifluoromethyl)furan-2-carboxamide]
10 to 50 nM | > 500 nM | 0.48 | 50 to 100 nM | 50 to 100 nM | C[C@H](Nc1nc(C(=O)N2CC(NC(=O)c3ccc(-c4ccccc4)cc3)C2)c2sccc2n1)c1cncc(F)c1 [Example Z645, (S)—N-(1-(2-((1-(5-Fluoropyridin-3-yl)ethyl)amino)thieno[3,2-d]pyrimidine-4-carbonyl)azetidin-3-yl)-[1,1′-biphenyl]-4-carboxamide]
10 to 50 nM | > 500 nM | 2.40 | 10 to 50 nM | > 500 nM | C[C@H](Nc1nc(C(=O)N2CC(NC(=O)c3ccc(C(F)(F)F)o3)C2)c2sccc2n1)c1cncc(F)c1 [Example Z629, (S)—N-(1-(2-((1-(5-Fluoropyridin-3-yl)ethyl)amino)thieno[3,2-d]pyrimidine-4-carbonyl)azetidin-3-yl)-5-(trifluoromethyl)furan-2-carboxamide]
< 10 nM | > 500 nM | 0.77 | < 10 nM | 100 to 500 nM | C[C@H](Nc1nc(C(=O)N2CC(NC(=O)C3CCCC3)C2)c2sccc2n1)c1cncc(F)c1 [Example Z605, (S)—N-(1-(2-((1-(5-Fluoropyridin-3-yl)ethyl)amino)thieno[3,2-d]pyrimidine-4-carbonyl)azetidin-3-yl)cyclopentanecarboxamide]
< 10 nM | > 500 nM | 0.88 | < 10 nM | 100 to 500 nM | C[C@H](Nc1nc(C(=O)N2CC(NC(=O)C34CC(C3)C4)C2)c2sccc2n1)c1cncc(F)c1 [Example Z604, (S)—N-(1-(2-((1-(5-Fluoropyridin-3-yl)ethyl)amino)thieno[3,2-d]pyrimidine-4-carbonyl)azetidin-3-yl)bicyclo[1.1.1]pentane-1-carboxamide]
< 10 nM | > 500 nM | 0.95 | < 10 nM | 100 to 500 nM | C[C@H](Nc1nc(C(=O)N2CC(NC(=O)NC3CCC3)C2)c2sccc2n1)c1cncc(F)c1 [Example Z623, (S)-1-Cyclobutyl-3-(1-(2-((1-(5-fluoropyridin-3-yl)ethyl)amino)thieno[3,2-d]pyrimidine-4-carbonyl)azetidin-3-yl)urea]
< 10 nM | > 500 nM | 2.10 | < 10 nM | 100 to 500 nM | C[C@H](Nc1nc(C(=O)N2CC(NC(=O)c3cccc(Cl)c3)C2)c2sccc2n1)c1cncc(F)c1 [Example Z615, (S)-3-Chloro-N-(1-(2-((1-(5-fluoropyridin-3-yl)ethyl)amino)thieno[3,2-d]pyrimidine-4-carbonyl)azetidin-3-yl)benzamide]
< 10 nM | > 500 nM | 0.98 | < 10 nM | 100 to 500 nM | C[C@H](Nc1nc(C(=O)N2CC(NC(=O)C3(C(F)(F)F)CC3)C2)c2sccc2n1)c1cncc(F)c1 [Example Z609, (S)—N-(1-(2-((1-(5-Fluoropyridin-3-yl)ethyl)amino)thieno[3,2-d]pyrimidine-4-carbonyl)azetidin-3-yl)-1-(trifluoromethyl)cyclopropane-1-carboxamide]
< 10 nM | > 500 nM | 0.59 | 10 to 50 nM | 100 to 500 nM | C[C@H](Nc1nc(C(=O)N2CC(NC(=O)C3(C)CCC3)C2)c2sccc2n1)c1cncc(Cl)c1 [Example Z644, (S)—N-(1-(2-((1-(5-Chloropyridin-3-yl)ethyl)amino)thieno[3,2-d]pyrimidine-4-carbonyl)azetidin-3-yl)-1-methylcyclobutane-1-carboxamide]
< 10 nM | > 500 nM | 0.33 | 10 to 50 nM | 10 to 50 nM | CCC(CC)NC(=O)NC1CN(C(=O)c2nc(N[C@@H](C)c3cncc(F)c3)nc3ccsc23)C1 [Example Z630, (S)-1-(1-(2-((1-(5-Fluoropyridin-3-yl)ethyl)amino)thieno[3,2-d]pyrimidine-4-carbonyl)azetidin-3-yl)-3-(pentan-3-yl)urea]
< 10 nM | > 500 nM | 1.25 | < 10 nM | 100 to 500 nM | C[C@H](Nc1nc(C(=O)N2CC[C@@H](C(=O)NOC3CCCC3)C2)c2sccc2n1)c1cncc(F)c1 [Example Z628, (R)—N-(Cyclopentyloxy)-1-(2-(((S)-1-(5-fluoropyridin-3-yl)ethyl)amino)thieno[3,2-d]pyrimidine-4-carbonyl)pyrrolidine-3-carboxamide]
< 10 nM | > 500 nM | 0.09 | 10 to 50 nM | 10 to 50 nM | C[C@H](Nc1nc(C(=O)N2CC(NC(=O)C34CC5CC(CC(C5)C3)C4)C2)c2sccc2n1)c1cncc(F)c1 [Example Z631, (3S,5S,7S)—N-(1-(2-(((S)-1-(5-Fluoropyridin-3-yl)ethyl)amino)thieno[3,2-d]pyrimidine-4-carbonyl)azetidin-3-yl)adamantane-1-carboxamide]
< 10 nM | > 500 nM | 0.18 | 10 to 50 nM | 100 to 500 nM | (S)—N-(1-(2-((1-(5-Fluoropyridin-3-yl)ethyl)amino)-7-methylthieno[3,2-d]pyrimidine-4-carbonyl)azetidin-3-yl)pivalamide [Example Z624]
